Reference: patent US12172959B2, “Mono- or di-substituted indole derivatives as dengue viral replication inhibitors” (priority 2015, dated 2024)

Assays:
DENV-2 16681 strain = assay: DENV-2 antiviral assay (eGFP fluorescence, Vero cells); assay type: cell-based, Dengue virus; details: DENV-2 16681 eGFP, MOI 0.5, 3 days
In short: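 eGFP-labelled DENV-2 16681 infected Vero cells (2500/well, MEM + 2% FCS) at MOI 0.5, one day after seeding onto 9-step 5-fold compound dilutions. After 3 days at 37 °C, eGFP fluorescence read at 488 nm; % inhibition normalised to virus and cell controls, EC50 by linear interpolation.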

Vero cells = details: African green monkey
DENV-3 strain H87 = assay: Tetravalent RT-qPCR assay Protocol B, serotype 3; assay type: cell-based; details: Dengue virus, DENV3, 168 h, RT-qPCR serotype 3 H87, 7 days
Experimental: (§1) The antiviral activity of the compounds of the invention was tested against DENV-1 strain Djibouti strain (D1/H/IMTSSA/98/606; Table 6), DENV-2 strain NGC (Table 7), DENV-3 strain H87 (Table 8) and DENV-4 strain SG/06K2270DK1/2005 (Table 9B) in a RT-qPCR assay. Vero-B or Vero-M cells (5×10^4) were seeded in 96-well plates. One day later, culture medium was replaced with 100 μL assay medium containing a 2×, 3× or 5× serial dilution of the compound (concentration range: 50 μg/mL-0.00038 μg/mL, 50 μg/mL-0.0076 μg/mL, and 50 μg/mL-0.00013 μg/mL, respectively) and 100 μL of dengue virus inoculum (DENV). Following a 2 hour incubation period, the cell monolayer was washed 3 times with assay medium to remove residual, non-adsorbed virus and cultures were further incubated for either 4 days (DENV-2 NGC) or 7 days (DENV-1 Djibouti strain D1/H/IMTSSA/98/606, DENV-3 strain H87 prototype, DENV-4 strain H241, and DENV-4 strain EDEN) in the presence of the inhibitor. Supernatant was harvested and viral RNA load was determined by real-time quantitative RT-PCR. The 50% effective concentration (EC50), which is defined as the compound concentration that is required to inhibit viral RNA replication by 50%, was determined using logarithmic interpolation.
(§2) RNA was isolated from 100 μL (or in some circumstances 150 μL) supernatant with the NucleoSpin 96 Virus kit (Filter Service, Duren, Germany) as described by the manufacturer. The sequences of the TaqMan primers (DENV-For, DENV-Rev; Table 5) and TaqMan probes (DENV-Probe Table 5) were selected from non-structural gene 3 (NS3) or NS5, of the respective flaviviruses using Primer Express software (version 2.0; Applied Biosystems, Lennik, Belgium). The TaqMan probe was fluorescently labelled with 6-carboxyfluorescein (FAM) at the 5′ end as the reporter dye, and with minor groove binder (MGB) at the 3′ end as the quencher (Table 5). One-step, quantitative RT-PCR was performed in a total volume of 25 μL, containing 13.9375 μL H2O, 6.25 μL master mix (Eurogentec, Seraing, Belgium), 0.375 μL forward primer, 0.375 μL reverse primer, 1 μL probe, 0.0625 μL reverse transcriptase (Eurogentec) and 3 μL sample. RT-PCR was performed using the ABI 7500 Fast Real-Time PCR System (Applied Biosystems, Branchburg, New Jersey, USA) using the following conditions: 30 min at 48° C. and 10 min at 95° C., followed by 40 cycles of 15 s at 95° C. and 1 min at 60° C. The data was analyzed using the ABI PRISM 7500 SDS software (version 1.3.1; Applied Biosystems). For absolute quantification, standard curves were generated using 10-fold dilutions of template preparations of known concentrations.

[1] = system: DENV-1 strain Djibouti strain (D1/H/IMTSSA/98/606); assay: Tetravalent RT-qPCR assay Protocol B, serotype 1; assay type: cell-based; details: Dengue virus, DENV1, 168 h, RT-qPCR serotype 1 Djibouti, 7 days
Experimental: as §1, §2

DENV-2 strain NGC = assay: Tetravalent RT-qPCR assay Protocol B, serotype 2; assay type: cell-based; details: Dengue virus, DENV2, 96 h, RT-qPCR serotype 2 NGC-Tongalike, 4 days
Experimental: as §1, §2

Row | SMILES | EC50 (DENV-2 16681 strain) [nM] | CC50 (Vero cells) [nM] | EC50 (DENV-3 strain H87) [nM] | EC50 [1] [nM] | EC50 (DENV-2 strain NGC) [nM]
1 | COc1cc(NC(C(=O)c2c[nH]c3cc(F)ccc23)c2ccc(Cl)cc2OC)cc(S(C)(=O)=O)c1 (single isomer, unassigned) [Compound 1A, 2-(4-chloro-2-methoxyphenyl)-1-(6-fluoro-1H-indol-3-yl)-2-((3-methoxy-5-(methylsulfonyl)phenyl)amino)ethanone] | 0.26 | 4300 | < 15 | < 15 | < 0.27
2 | COc1cc(NC(C(=O)c2c[nH]c3c(C)c(F)ccc23)c2ccc(Cl)cc2OC)cc(S(C)(=O)=O)c1 (single isomer, unassigned) [Compound 2A, 2-(4-chloro-2-methoxyphenyl)-1-(6-fluoro-7-methyl-1H-indol-3-yl)-2-((3-methoxy-5-(methylsulfonyl)phenyl)amino)ethanone] | 0.26 | 4800 | < 14 | < 14 | < 0.24
3 | COc1cc(NC(C(=O)c2c[nH]c3cc(OC)c(C)cc23)c2ccc(Cl)cc2OC)cc(S(C)(=O)=O)c1 (single isomer, unassigned) [Compound 4A, 2-(4-chloro-2-methoxyphenyl)-2-((3-methoxy-5-(methyl-sulfonyl)phenyl)amino)-1-(6-methoxy-5-methyl-1H-indol-3-yl)ethanone] | 0.27 | 4200 | < 14 | < 14 | 0.32
4 | COc1cc(NC(C(=O)c2c[nH]c3cc(OC)c(F)cc23)c2ccc(Cl)cc2OC)cc(S(C)(=O)=O)c1 (single isomer, unassigned) [Compound 5A, 2-(4-chloro-2-methoxyphenyl)-1-(5-fluoro-6-methoxy-1H-indol-3-yl)-2-((3-methoxy-5-(methylsulfonyl)phenyl)amino)ethanone] | 0.41 | 5000 | 22 | < 14 | < 0.23
5 | COc1cc(NC(C(=O)c2c[nH]c3c(C)c(OC)ccc23)c2ccc(Cl)cc2OC)cc(S(C)(=O)=O)c1 (single isomer, unassigned) [Compound 6A, 2-(4-chloro-2-methoxyphenyl)-2-((3-methoxy-5-(methyl-sulfonyl)phenyl)amino)-1-(6-methoxy-7-methyl-1H-indol-3-yl)ethanone] | 0.068 | > 25000 | < 14 | < 14 | < 0.24
